Reference: PubChem BioAssay AID651552 (The Scripps Research Institute Molecular Screening Center, 2012)
Calls of active or inactive are those of the source. No rule for the calls is given here.

Target: beta-lactamase TEM-1 reporter (bacterial) (UniProt Q932Y6)
Experiment: beta-lactamase reporter inhibitor potency, dose response, artefact control for NOD2-RIPK2 interaction inhibitor project, BLA reporter cells, FRET fluorescence (AID 651552)
Conditions: HEK293 BLA reporter cells

C=CCn1c(O)c(C2=c3ccccc3=NC2=O)c2ccccc21
IC50: > 49.7 µM (inactive)

COc1ccc(C[C@H]2NC[C@H](O)[C@H]2OC(C)=O)cc1
IC50: > 49.8 µM (inactive)
